Measured values from ChEMBL document CHEMBL4507319 (2021).

Legend:
[1] = molecular target: Serine/threonine-protein kinase 24 (Homo sapiens, UniProt Q9Y6E0)
[2] = molecular target: T1, Myosin light chain kinase (Homo sapiens) (UniProt Q32MK0); assay: MLCK(h) Eurofins kinase panel; conditions: Compound concentration 1.0 uM
T1 sequence (whole entry): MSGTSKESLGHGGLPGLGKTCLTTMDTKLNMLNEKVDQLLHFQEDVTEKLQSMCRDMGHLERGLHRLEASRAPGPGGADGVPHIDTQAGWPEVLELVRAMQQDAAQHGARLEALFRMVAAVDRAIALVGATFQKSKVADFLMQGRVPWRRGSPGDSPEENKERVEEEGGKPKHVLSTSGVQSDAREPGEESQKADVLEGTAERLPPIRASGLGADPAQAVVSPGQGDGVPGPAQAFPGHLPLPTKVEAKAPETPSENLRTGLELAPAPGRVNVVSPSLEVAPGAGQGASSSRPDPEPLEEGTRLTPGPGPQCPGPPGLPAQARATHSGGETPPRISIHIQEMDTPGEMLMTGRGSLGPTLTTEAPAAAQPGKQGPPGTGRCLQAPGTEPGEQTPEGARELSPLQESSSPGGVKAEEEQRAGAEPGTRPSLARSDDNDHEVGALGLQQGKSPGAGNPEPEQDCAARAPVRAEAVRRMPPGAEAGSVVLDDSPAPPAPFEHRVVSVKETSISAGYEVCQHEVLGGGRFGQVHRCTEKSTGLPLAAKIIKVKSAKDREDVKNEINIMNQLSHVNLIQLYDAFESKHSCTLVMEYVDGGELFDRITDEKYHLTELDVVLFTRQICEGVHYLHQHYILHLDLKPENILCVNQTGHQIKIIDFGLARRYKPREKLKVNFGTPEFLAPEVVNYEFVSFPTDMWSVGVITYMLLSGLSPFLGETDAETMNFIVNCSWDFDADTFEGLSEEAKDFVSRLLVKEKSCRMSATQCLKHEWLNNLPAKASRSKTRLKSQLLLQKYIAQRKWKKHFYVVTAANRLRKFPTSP

[3] = molecular target: CDK4/Cyclin D3 (Homo sapiens) (UniProt P11802+P30281); assay: CDK4/cyclinD3(h) Eurofins kinase panel; type: protein-complex assay; conditions: Compound concentration 1.0 uM
[4] = molecular target: T2, Serine/threonine-protein kinase BRSK1 (Homo sapiens) (UniProt Q8TDC3); assay: BrSK1(h) Eurofins kinase panel; conditions: Compound concentration 1.0 uM
T2 sequence (whole entry): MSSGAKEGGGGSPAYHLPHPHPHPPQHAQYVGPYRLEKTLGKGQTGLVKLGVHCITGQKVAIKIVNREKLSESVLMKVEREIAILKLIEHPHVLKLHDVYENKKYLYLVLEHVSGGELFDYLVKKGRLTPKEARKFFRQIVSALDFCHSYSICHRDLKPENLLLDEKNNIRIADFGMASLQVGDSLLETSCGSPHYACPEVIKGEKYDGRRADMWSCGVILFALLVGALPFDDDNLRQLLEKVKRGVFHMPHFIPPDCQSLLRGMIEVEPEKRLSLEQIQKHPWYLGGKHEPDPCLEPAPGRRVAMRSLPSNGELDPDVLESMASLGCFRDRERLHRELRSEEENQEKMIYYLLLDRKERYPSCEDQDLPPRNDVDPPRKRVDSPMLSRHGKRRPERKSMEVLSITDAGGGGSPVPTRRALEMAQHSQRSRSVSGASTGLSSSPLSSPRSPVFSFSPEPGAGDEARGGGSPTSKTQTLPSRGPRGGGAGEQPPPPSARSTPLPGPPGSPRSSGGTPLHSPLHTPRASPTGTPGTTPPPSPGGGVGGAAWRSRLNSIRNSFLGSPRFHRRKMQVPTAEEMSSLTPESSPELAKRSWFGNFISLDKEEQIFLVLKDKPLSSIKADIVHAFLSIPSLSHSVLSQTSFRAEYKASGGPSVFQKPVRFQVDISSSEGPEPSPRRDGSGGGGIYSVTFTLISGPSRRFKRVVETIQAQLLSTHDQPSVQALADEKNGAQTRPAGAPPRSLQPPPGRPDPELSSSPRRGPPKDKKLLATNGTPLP

U2OS = assay: U2-OS cell line Proliferation assay; type: functional, Homo sapiens; conditions: time 3 day
[5] = molecular target: Tyrosine-protein kinase SYK (Homo sapiens) (UniProt P43405); assay: Syk(h) Eurofins kinase panel; conditions: Compound concentration 1.0 uM
[6] = molecular target: Fibroblast growth factor receptor 2 (Homo sapiens) (UniProt P21802); assay: FGFR2(h) Eurofins kinase panel; conditions: Compound concentration 1.0 uM
SW480 = assay: SW480 cell line Proliferation assay; type: functional, Homo sapiens; conditions: time 3 day
[7] = molecular target: Protein kinase C gamma type (Homo sapiens) (UniProt P05129); assay: PKCgamma(h) Eurofins kinase panel; conditions: Compound concentration 1.0 uM
[8] = molecular target: T3, Serine/threonine-protein kinase haspin (Homo sapiens) (UniProt Q8TF76); assay: Haspin(h) Eurofins kinase panel; conditions: Compound concentration 1.0 uM
T3 sequence (whole entry): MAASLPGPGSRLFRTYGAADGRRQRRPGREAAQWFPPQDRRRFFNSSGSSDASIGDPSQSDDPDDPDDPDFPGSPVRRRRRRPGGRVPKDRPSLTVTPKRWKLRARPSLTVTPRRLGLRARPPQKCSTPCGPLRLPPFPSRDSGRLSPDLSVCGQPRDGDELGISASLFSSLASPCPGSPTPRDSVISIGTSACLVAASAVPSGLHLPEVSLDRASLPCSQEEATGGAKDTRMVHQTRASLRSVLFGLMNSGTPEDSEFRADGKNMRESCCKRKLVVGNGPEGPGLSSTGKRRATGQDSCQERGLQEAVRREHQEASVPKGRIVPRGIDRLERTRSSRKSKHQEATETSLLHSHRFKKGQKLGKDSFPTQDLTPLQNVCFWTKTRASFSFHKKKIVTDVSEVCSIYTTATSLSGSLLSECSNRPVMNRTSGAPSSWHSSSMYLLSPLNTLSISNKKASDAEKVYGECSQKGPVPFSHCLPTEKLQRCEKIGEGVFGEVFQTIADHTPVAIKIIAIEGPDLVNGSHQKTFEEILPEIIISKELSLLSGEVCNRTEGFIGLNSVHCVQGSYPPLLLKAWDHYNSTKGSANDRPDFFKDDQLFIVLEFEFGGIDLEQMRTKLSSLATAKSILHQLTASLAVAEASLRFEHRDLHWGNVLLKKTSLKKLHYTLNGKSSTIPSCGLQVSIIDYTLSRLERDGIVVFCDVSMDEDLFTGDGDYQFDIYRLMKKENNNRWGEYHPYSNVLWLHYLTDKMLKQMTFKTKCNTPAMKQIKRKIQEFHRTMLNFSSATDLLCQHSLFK

[9] = molecular target: Glycogen synthase kinase-3 alpha (Homo sapiens) (UniProt P49840); assay: GSK3α(h) Eurofins kinase panel; conditions: Compound concentration 1.0 uM
[10] = molecular target: Serine/threonine-protein kinase WNK3 (Homo sapiens) (UniProt Q9BYP7); assay: WNK3(h) Eurofins kinase panel; conditions: Compound concentration 1.0 uM
Sequence of Serine/threonine-protein kinase WNK3 (Homo sapiens) (Q9BYP7 whole entry): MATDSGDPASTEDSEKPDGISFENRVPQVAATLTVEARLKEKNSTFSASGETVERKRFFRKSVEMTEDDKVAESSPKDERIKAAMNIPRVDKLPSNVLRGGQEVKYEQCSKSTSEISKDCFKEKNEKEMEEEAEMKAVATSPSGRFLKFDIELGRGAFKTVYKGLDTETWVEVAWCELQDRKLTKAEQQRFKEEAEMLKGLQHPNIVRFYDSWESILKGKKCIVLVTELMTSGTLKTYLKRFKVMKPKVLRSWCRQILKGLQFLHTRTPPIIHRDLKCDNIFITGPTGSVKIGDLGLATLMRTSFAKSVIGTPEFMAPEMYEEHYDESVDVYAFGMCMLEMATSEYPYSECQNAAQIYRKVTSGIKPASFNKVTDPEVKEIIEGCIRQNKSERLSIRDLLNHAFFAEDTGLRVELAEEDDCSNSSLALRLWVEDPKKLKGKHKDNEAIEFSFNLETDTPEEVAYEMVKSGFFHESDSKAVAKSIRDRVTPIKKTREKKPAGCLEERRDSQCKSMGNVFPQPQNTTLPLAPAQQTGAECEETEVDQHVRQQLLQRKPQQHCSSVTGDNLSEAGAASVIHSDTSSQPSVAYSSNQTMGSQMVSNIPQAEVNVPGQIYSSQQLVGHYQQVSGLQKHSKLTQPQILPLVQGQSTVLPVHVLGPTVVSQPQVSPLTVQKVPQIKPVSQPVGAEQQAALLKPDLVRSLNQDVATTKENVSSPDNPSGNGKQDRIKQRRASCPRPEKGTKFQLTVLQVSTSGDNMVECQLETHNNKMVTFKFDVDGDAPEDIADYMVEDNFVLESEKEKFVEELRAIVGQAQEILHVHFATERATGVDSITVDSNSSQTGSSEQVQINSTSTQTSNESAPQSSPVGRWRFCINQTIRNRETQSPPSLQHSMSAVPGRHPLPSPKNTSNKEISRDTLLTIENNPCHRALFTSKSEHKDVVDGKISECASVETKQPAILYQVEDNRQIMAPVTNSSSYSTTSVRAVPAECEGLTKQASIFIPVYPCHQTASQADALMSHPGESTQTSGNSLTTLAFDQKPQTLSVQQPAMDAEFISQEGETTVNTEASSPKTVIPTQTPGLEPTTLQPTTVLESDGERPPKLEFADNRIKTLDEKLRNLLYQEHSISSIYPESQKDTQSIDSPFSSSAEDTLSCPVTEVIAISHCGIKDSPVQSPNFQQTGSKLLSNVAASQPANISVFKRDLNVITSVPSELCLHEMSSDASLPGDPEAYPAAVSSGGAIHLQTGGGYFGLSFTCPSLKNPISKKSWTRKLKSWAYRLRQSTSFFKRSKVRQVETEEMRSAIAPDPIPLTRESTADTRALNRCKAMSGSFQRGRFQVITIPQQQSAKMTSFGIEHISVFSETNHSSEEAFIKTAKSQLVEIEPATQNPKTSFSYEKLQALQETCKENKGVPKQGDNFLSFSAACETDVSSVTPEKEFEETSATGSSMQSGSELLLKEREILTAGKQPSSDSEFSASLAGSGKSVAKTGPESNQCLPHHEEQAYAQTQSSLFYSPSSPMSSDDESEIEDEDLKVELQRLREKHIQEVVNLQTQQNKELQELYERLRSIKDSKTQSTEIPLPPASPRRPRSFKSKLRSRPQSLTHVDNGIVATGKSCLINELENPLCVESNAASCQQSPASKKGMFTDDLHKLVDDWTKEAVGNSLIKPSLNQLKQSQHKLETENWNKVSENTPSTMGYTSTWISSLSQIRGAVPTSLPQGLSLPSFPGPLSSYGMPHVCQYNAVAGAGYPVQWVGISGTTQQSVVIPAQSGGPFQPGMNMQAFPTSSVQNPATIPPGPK

Sequence of Glycogen synthase kinase-3 alpha (Homo sapiens) (P49840 2-483 limits assumed): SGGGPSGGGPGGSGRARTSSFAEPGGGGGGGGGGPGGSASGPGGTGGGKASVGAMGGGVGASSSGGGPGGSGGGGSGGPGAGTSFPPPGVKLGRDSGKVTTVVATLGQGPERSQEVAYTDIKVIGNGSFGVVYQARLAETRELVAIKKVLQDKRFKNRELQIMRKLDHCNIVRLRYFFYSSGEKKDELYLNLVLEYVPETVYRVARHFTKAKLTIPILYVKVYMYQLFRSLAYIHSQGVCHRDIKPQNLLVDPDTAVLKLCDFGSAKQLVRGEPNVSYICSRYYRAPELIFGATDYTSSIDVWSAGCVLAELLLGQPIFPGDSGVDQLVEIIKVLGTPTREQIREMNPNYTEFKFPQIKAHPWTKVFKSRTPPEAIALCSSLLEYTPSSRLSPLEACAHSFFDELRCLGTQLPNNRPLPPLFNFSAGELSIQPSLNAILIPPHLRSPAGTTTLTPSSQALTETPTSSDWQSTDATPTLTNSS
Sequence of Fibroblast growth factor receptor 2 (Homo sapiens) (P21802 22-821 limits assumed): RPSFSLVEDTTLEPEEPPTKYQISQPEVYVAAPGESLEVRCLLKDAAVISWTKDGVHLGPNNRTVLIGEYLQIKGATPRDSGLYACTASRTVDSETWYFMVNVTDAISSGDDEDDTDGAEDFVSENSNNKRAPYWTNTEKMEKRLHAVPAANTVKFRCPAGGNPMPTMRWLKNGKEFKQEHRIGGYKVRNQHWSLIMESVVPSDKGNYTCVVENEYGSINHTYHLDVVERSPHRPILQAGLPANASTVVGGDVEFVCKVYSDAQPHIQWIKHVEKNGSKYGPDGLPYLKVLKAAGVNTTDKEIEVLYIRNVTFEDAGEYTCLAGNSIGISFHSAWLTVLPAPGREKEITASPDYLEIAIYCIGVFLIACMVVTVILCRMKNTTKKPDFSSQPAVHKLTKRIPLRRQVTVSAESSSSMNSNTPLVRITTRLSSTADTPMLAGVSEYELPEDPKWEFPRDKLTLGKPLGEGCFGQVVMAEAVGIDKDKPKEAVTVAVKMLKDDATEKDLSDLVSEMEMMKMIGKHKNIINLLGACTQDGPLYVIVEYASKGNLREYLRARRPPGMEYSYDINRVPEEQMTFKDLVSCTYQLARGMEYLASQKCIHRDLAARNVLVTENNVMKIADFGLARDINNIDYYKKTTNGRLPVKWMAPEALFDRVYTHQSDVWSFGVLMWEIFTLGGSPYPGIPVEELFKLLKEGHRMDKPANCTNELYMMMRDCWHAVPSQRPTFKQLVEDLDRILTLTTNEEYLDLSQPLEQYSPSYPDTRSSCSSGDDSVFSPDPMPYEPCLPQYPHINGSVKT
Sequence of Serine/threonine-protein kinase 24 (Q9Y6E0 whole entry): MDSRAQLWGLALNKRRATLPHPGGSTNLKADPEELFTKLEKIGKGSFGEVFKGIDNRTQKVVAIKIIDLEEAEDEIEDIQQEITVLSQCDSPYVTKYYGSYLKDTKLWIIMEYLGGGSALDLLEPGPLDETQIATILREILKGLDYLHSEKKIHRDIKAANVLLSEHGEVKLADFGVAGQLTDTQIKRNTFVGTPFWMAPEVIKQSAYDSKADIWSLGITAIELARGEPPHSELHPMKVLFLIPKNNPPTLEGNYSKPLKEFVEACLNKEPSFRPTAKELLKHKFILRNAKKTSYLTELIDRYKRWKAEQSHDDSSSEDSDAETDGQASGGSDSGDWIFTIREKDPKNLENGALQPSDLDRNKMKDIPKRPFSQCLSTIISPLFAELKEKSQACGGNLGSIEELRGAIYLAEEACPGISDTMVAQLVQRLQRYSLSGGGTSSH

SMILES: CCc1ccccc1C(=O)Nc1n[nH]c2c(C)c(F)c(C3C(C#N)=C(C)N(C)C(C)=C3C#N)cc12 [BAY-3827]
- IC50 [1]: 0.094 µM
- % residual kinase activity [2]: 32%
- % residual kinase activity [3]: 112%
- % residual kinase activity [4]: 64%
- Cell Proliferation IC50 (U2OS): 18.7 µM
- % residual kinase activity [5]: 106%
- % residual kinase activity [6]: 58%
- Cell Proliferation IC50 (SW480): 27.8 µM
- % residual kinase activity [7]: 47%
- % residual kinase activity [8]: 107%
- % residual kinase activity [9]: 83%
- % residual kinase activity [10]: 103%
